Like-named read-outs stand apart in the source and are kept apart here.
Legend:
[1] = test system: Ba/F3 cells expressing EGFR mutations; test: Cell proliferation assay, Ba/F3 cells expressing EGFR mutations (CellTiter-Glo, 72 hours); assay type: cell-based
Method in brief: (§1)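 Growth over 72 h was quantified by CellTiter-Glo luminescence, normalised as (G3 − G0)/(DMSO G3 − G0), for PC-9 cells seeded at 500/well and EGFR-mutant Ba/F3 cells at 5000/well in RPMI1640. Compound concentration series added after overnight incubation; GI50 obtained from best-fit curves.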

PC-9 = test: Cell proliferation assay, PC-9 cells (CellTiter-Glo, 72 hours); assay type: cell-based; settings: PC9 cells, read-out: GI50 PC9
Method in brief: as §1

EGFR (d746-750 C797S) = target: T1, EGFR (d746-750 C797S) (Homo sapiens, UniProt P00533, C797S/DEL746-750); test: Inhibition of EGFR (d746-750 C797S) biochemical enzymatic activity (HTRF); settings: EGFR (d746-750 C797S), 1 mM ATP, 1 h at room temperature, read-out: IC50 @Del19-C797S
T1 construct: purchased signalchem
Method in brief: (§2)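 Kinase activity is measured by HTRF detection of biotinylated TK substrate (1 μM) phosphorylation at 1 mM ATP. Incubation lasts 1 h at room temperature before an EDTA stop, and IC50 is fitted with a four-parameter logistic model.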

EGFR Exon19Del = target: T2, EGFR Exon19Del (Homo sapiens, UniProt P00533, DEL746-750); test: Inhibition of EGFR Exon19Del biochemical enzymatic activity (HTRF); settings: EGFR Exon19Del, 1 mM ATP, 1 h at room temperature, read-out: IC50 @Del19
T2 construct: purchased Carna Bio
Method in brief: as §2

A-431 = test: Cell proliferation assay, A-431 cells (GI50, Table 6); assay type: cell-based
Experimental: [Worded in the source for another cell line; this cell line is reported under the same test.] Ba/F3 cells expressing EGFR mutations were seeded in 384-well plates at 5000 cells/well in RPMI1640 medium containing […]. PC-9 at 500 cells/well was seeded into 384-well plates in RPMI1640 medium with 10% FBS. After overnight incubation, the assay plates were dosed with compounds at a series of concentrations. Alongside dosing the assay plates, the day 0 plate was processed using CellTiter-Glo® Luminescent Cell Viability Assay (Promega) to measure the number of viable cells (G0). The assay plates were further incubated for 72 hours and the number of viable cells (G3) was measured. The percentage of proliferation was calculated as: […]=100×(G3 value of sample well−G0 value)/(G3 value of DMSO control−G0 value). The concentration of compound producing 50% proliferation inhibition (GI50) was further calculated in best-fit curves using XLFit software. N/A=not available.

EGFR wild type = target: T3, EGFR wild type (Homo sapiens, UniProt P00533); test: Inhibition of EGFR wild type biochemical enzymatic activity (HTRF); settings: EGFR wild type, 1 mM ATP, 1 h at room temperature, read-out: IC50 @WT
T3 construct: purchased Carna Bio
Method in brief: as §2

EGFR Exon19Del/T790M = target: T4, EGFR Exon19Del/T790M (Homo sapiens, UniProt P00533, DEL746-750/T790M); test: Inhibition of EGFR Exon19Del/T790M biochemical enzymatic activity (HTRF); settings: EGFR Exon19Del/T790M, 1 mM ATP, 1 h at room temperature, read-out: IC50 @Del19-T790M
T4 construct: purchased Carna Bio
Method in brief: as §2

EGFR[T790M/C797S/L858R] = target: T5, EGFR[T790M/C797S/L858R] (Homo sapiens, UniProt P00533, C797S/L858R/T790M); test: Inhibition of EGFR[T790M/C797S/L858R] biochemical enzymatic activity (HTRF); settings: EGFR[T790M/C797S/L858R], 1 mM ATP, 1 h at room temperature, read-out: IC50 @T790M- C797S - L858R
T5 construct: purchased Carna Bio
Method in brief: as §2

[2] = target: T6, EGFR[T790M/C797S/d746-750] (Homo sapiens, UniProt P00533, C797S/DEL746-750/T790M); test: Inhibition of EGFR[T790M/C797S/d746-750] biochemical enzymatic activity (HTRF); settings: EGFR[T790M/C797S/d746-750], 1 mM ATP, 1 h at room temperature, read-out: IC50 @T790M - C797S - Del19
T6 construct: purchased Carna Bio
Method in brief: as §2

EGFR (C797S L858R) = target: T7, EGFR (C797S L858R) (Homo sapiens, UniProt P00533, C797S/L858R); test: Inhibition of EGFR (C797S L858R) biochemical enzymatic activity (HTRF); settings: EGFR (C797S L858R), 1 mM ATP, 1 h at room temperature, read-out: IC50 @L858-C797S
T7 construct: purchased signalchem
Method in brief: as §2

EGFR L858R/T790M = target: T8, EGFR L858R/T790M (Homo sapiens, UniProt P00533, L858R/T790M); test: Inhibition of EGFR L858R/T790M biochemical enzymatic activity (HTRF); settings: EGFR L858R/T790M, 1 mM ATP, 1 h at room temperature, read-out: IC50 @L858R-T790M
T8 construct: purchased Carna Bio
Method in brief: as §2

EGFR L858R = target: T9, EGFR L858R (Homo sapiens, UniProt P00533, L858R); test: Inhibition of EGFR L858R biochemical enzymatic activity (HTRF); settings: 1 mM ATP, 1 h at room temperature, read-out: IC50 @L858R
T9 construct: purchased Carna Bio
Method in brief: as §2

[3] = BaF3 cells, EGFR DEL19 - C797S, read-out: GI50 DEL19 - C797S/BaF3
[4] = BaF3 cells, EGFR DEL19 - T790-C797S, read-out: GI50 DEL19 - T790-C797S/BaF3
[5] = BaF3 cells, EGFR L858R - T790-C797S, read-out: GI50 L858R - T790-C797S/BaF3
[6] = BaF3 cells, EGFR L858R, read-out: GI50 L858R/BaF3
[7] = EGFR DEL19 - T790M, read-out: GI50 DEL19 - T790M
[8] = BaF3 cells, EGFR L858R - C797S, read-out: GI50 L858R - C797S/BaF3
[9] = BaF3 cells, EGFR L858R - T790M, read-out: GI50 L858R - T790M/BaF3
[10] = Homo sapiens, A-431, A-431 cells

T8 sequence (P00533 25-1210 T790M/L858R): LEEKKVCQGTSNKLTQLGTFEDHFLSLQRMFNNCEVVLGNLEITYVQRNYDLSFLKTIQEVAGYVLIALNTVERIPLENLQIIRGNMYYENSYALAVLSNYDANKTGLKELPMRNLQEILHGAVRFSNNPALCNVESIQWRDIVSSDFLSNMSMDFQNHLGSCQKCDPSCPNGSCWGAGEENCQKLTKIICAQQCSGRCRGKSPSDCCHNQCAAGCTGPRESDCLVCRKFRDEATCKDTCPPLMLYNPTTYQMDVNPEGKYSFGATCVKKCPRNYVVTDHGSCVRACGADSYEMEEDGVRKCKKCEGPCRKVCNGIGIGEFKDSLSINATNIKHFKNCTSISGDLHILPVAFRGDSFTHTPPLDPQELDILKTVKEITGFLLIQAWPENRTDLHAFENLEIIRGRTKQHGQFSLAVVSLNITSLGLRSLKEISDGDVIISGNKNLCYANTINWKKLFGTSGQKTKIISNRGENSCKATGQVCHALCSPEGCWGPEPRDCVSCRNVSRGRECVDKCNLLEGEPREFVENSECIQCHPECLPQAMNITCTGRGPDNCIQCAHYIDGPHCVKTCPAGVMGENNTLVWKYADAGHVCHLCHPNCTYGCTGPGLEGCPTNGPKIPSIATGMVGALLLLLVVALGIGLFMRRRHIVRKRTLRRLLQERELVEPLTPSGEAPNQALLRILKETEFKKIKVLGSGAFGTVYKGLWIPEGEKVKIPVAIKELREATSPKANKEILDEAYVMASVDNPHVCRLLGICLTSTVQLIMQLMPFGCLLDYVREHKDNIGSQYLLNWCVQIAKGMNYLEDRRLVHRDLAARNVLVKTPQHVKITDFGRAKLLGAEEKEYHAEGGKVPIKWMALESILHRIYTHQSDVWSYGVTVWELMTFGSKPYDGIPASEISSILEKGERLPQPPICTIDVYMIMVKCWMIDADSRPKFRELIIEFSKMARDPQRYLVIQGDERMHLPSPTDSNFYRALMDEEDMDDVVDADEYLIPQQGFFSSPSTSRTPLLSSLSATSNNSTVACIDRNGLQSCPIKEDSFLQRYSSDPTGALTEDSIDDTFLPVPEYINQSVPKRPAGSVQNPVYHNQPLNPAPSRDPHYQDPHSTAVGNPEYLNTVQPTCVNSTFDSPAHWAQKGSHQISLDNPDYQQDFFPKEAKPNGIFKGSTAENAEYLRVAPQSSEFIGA
T4 sequence (P00533 with tags, fused parts or gaps DEL746-750/T790M limits assumed): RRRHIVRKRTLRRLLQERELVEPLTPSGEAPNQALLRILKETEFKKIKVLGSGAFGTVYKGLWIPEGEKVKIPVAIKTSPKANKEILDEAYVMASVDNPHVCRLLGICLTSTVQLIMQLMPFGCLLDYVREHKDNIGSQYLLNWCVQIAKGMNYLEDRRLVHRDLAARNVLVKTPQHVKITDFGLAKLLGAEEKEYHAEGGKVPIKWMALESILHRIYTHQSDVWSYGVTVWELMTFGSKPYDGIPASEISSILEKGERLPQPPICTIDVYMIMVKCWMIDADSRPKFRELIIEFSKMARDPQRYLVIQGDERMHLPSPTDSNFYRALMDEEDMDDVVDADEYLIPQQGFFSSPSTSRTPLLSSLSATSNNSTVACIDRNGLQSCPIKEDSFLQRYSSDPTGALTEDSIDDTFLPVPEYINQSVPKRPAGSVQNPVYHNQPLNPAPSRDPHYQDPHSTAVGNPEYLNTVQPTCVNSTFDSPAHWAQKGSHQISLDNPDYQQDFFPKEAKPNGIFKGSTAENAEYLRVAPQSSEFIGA
T9 sequence (P00533 25-1210 L858R): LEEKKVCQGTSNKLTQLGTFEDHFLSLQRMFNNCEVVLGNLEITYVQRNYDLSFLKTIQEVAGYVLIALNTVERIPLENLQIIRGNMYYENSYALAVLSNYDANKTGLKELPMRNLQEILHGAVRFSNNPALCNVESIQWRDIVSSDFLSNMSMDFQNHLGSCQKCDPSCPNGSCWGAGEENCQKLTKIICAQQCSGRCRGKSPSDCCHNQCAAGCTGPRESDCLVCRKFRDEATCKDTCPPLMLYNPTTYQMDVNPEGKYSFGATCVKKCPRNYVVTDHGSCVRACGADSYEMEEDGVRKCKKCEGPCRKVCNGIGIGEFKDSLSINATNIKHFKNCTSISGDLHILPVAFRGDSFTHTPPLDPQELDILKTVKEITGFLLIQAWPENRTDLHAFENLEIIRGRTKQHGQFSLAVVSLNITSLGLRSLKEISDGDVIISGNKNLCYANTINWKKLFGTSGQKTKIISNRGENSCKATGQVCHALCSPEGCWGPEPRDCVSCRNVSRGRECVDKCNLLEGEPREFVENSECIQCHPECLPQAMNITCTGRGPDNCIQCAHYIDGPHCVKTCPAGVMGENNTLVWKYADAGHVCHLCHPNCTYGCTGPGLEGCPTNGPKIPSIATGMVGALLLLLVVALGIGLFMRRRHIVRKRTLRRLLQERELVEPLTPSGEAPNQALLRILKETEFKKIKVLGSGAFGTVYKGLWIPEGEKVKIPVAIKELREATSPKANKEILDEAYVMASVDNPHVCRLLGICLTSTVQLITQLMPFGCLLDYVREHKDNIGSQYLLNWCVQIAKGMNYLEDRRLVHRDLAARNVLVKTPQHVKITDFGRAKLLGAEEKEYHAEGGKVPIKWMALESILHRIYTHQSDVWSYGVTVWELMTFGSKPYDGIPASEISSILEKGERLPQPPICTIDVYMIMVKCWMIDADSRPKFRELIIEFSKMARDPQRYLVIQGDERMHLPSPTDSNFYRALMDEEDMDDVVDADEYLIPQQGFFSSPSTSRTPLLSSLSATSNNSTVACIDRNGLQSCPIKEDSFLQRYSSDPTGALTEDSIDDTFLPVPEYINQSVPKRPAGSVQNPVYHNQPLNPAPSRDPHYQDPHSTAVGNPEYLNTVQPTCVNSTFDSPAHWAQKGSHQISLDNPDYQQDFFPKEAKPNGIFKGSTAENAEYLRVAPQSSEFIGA
T7 sequence (P00533 25-1210 C797S/L858R): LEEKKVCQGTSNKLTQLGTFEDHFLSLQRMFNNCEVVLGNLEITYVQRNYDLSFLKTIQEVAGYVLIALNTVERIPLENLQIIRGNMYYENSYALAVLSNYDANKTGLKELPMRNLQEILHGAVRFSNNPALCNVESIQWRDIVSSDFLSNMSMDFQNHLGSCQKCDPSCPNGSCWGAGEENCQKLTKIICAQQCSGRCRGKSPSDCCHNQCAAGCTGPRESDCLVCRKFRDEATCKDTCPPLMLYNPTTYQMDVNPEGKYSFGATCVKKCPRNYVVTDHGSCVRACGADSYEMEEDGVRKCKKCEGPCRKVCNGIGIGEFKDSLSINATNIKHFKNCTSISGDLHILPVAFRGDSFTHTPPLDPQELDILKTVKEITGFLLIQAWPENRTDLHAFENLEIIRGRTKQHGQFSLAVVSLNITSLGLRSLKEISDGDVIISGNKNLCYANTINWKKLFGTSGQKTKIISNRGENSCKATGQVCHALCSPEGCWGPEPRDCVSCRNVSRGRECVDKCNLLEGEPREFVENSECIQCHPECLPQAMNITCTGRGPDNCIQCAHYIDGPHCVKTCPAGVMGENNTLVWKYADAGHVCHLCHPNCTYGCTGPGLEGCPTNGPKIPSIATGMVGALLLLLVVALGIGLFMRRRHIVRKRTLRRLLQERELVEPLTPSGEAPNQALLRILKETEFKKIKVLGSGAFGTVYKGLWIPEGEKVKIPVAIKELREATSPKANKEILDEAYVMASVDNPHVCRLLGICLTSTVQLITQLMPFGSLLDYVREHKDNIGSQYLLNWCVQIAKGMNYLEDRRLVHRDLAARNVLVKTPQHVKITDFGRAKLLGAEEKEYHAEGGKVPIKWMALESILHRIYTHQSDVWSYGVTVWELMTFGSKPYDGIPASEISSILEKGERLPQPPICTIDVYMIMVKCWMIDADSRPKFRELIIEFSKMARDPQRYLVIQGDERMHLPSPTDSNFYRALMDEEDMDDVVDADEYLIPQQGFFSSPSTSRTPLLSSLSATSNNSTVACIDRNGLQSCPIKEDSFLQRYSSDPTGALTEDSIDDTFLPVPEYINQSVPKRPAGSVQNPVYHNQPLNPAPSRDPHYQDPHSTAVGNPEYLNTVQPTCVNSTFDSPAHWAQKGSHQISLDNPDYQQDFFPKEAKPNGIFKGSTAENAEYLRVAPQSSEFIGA
T1 sequence (P00533 with tags, fused parts or gaps DEL746-750/C797S limits assumed): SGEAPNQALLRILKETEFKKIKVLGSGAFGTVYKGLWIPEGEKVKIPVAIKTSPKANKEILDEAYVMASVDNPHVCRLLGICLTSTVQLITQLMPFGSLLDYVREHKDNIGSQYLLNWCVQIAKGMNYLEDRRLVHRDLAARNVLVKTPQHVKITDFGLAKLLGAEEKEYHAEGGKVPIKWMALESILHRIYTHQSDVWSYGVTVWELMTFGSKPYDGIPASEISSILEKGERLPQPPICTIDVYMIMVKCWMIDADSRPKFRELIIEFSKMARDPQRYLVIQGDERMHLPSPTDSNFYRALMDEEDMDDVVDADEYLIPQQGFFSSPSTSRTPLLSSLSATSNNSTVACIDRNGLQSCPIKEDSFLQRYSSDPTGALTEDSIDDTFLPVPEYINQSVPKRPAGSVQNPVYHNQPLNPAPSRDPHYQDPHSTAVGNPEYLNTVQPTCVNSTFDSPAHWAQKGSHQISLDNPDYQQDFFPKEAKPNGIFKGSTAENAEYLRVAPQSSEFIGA

SMILES | GI50 [1, 3] | GI50 [1, 4] | GI50 [1, 5] | GI50 [1, 6] | GI50 [1, 7] | GI50 (PC-9) | IC50 (EGFR (d746-750 C797S)) | IC50 (EGFR Exon19Del) | GI50 (A-431; A-431 cells) | IC50 (EGFR wild type) | IC50 (EGFR Exon19Del/T790M) | IC50 (EGFR[T790M/C797S/L858R]) | IC50 [2] | IC50 (EGFR (C797S L858R)) | IC50 (EGFR L858R/T790M) | IC50 (EGFR L858R) | GI50 [1, 8] | GI50 [1, 9] | GI50 (A-431; [10])
COCCN(C)c1ccc2nc3n(c2c1)C12CCC(CN(CCOc4c(cnn4C)-c4cc(cc(C)n4)C(=O)N3)C1)C2 (single isomer, unassigned) [Example B46B] | 2 nM | 2 nM | 2 nM | 36 nM | 2 nM | 25 nM | 7.5 nM | 28 nM | 1360 nM | > 5000 nM | 7.2 nM | 4.7 nM | 3.7 nM | 117 nM | 12 nM | 377 nM | – | – | –
Cc1cc2cc(n1)-c1cnn(C)c1OCCN1CC3CCC(C3)(C1)n1c(nc3ccc(N(C)CCN(C)C)cc31)NC2=O (single isomer, unassigned) [Example B47B] | 2 nM | 2 nM | 2 nM | 11 nM | 2 nM | 12 nM | 2.8 nM | 5.8 nM | – | 805 nM | 2.8 nM | 1.5 nM | 1.9 nM | 14 nM | 3.5 nM | 59 nM | 9 nM | 2 nM | 378 nM
Cc1cc2cc(n1)-c1cnn(C)c1OCCN1CC3CCC(C3)(C1)n1c(nc3ccc(N4CCC5(CCN(C)CC5)C4)cc31)NC2=O (single isomer, unassigned) [Example B51B] | 2 nM | 2 nM | 2 nM | 8 nM | 2 nM | 8 nM | 3.5 nM | 6.1 nM | – | 546 nM | 5.6 nM | 2.9 nM | 3.4 nM | 8.4 nM | 5.9 nM | 21 nM | 4 nM | 2 nM | 3030 nM
Cc1cc2cc(n1)-c1cnn(C)c1OCCN1CC3CCC(C3)(C1)n1c(nc3ccc(N4CCC5(CCN(C)C5)CC4)cc31)NC2=O (single isomer, unassigned) [Example B52A] | 102 nM | 169 nM | 41 nM | 176 nM | 363 nM | 311 nM | 2050 nM | > 5000 nM | 7020 nM | > 5000 nM | 100 nM | > 5000 nM | 37 nM | > 5000 nM | > 5000 nM | > 5000 nM | 180 nM | 191 nM | –
Cc1cc2cc(n1)-c1cnn(C)c1OCCN1CC3CCC(C3)(C1)n1c(nc3ccc(N4CCC5(CCN(C)C5)CC4)cc31)NC2=O (single isomer, unassigned) [Example B52B] | 2 nM | 2 nM | 2 nM | 2 nM | 7 nM | 4 nM | 2.4 nM | 5.4 nM | 879 nM | 8.3 nM | 4.5 nM | 1.6 nM | 2 nM | 3.2 nM | 3.5 nM | 6 nM | 2 nM | 2 nM | –

Continued, values first:

GI50 [1, 3] | GI50 [1, 4] | GI50 [1, 5] | GI50 [1, 6] | GI50 [1, 7] | GI50 (PC-9) | IC50 (EGFR (d746-750 C797S)) | IC50 (EGFR Exon19Del) | GI50 (A-431; A-431 cells) | IC50 (EGFR wild type) | IC50 (EGFR Exon19Del/T790M) | IC50 (EGFR[T790M/C797S/L858R]) | IC50 [2] | IC50 (EGFR (C797S L858R)) | IC50 (EGFR L858R/T790M) | IC50 (EGFR L858R) | GI50 [1, 8] | GI50 [1, 9] | GI50 (A-431; [10]) | SMILES
114 nM | 172 nM | 34 nM | 846 nM | 140 nM | 973 nM | 1020 nM | 2240 nM | 7000 nM | > 5000 nM | > 5000 nM | > 5000 nM | > 5000 nM | 2920 nM | > 5000 nM | > 5000 nM | 426 nM | 168 nM | – | Cc1cc2cc(n1)-c1cnn(C)c1OCCN1CC3CCC(C3)(C1)n1c(nc3ccc(N4CC(N5CCOCC5)C4)cc31)NC2=O (single isomer, unassigned) [Example B48A]
2 nM | 2 nM | 2 nM | 13 nM | 2 nM | 12 nM | 4.5 nM | 13 nM | 1370 nM | 2970 nM | 6.9 nM | 3 nM | 3.4 nM | 44 nM | 6.7 nM | 142 nM | 6 nM | 2 nM | – | Cc1cc2cc(n1)-c1cnn(C)c1OCCN1CC3CCC(C3)(C1)n1c(nc3ccc(N4CC(N5CCOCC5)C4)cc31)NC2=O (single isomer, unassigned) [Example B48B]
2 nM | 2 nM | 2 nM | 7 nM | 2 nM | 8 nM | 2.1 nM | 5.1 nM | – | 413 nM | 3.6 nM | 1.5 nM | 2.4 nM | 7 nM | 3 nM | 26 nM | 4 nM | 2 nM | 1570 nM | Cc1cc2cc(n1)-c1cnn(C)c1OCCN1CC3CCC(C3)(C1)n1c(nc3ccc(N4CCC5(CN(C)C5)C4)cc31)NC2=O (single isomer, unassigned) [Example B50B]
2 nM | 2 nM | 2 nM | 13 nM | 6 nM | 10 nM | 1.9 nM | 5.2 nM | – | 971 nM | 3.9 nM | 1.7 nM | 1.9 nM | 9.5 nM | 2.6 nM | 53 nM | 4 nM | 2 nM | 2570 nM | Cc1cc2cc(n1)-c1cnn(C)c1OCCN1CC3CCC(C3)(C1)n1c(nc3ccc(N4CC5CC4CN5C)cc31)NC2=O (single isomer, unassigned) [Example B53B]
280 nM | 241 nM | 107 nM | 801 nM | 527 nM | 515 nM | 4720 nM | > 5000 nM | 3410 nM | > 5000 nM | 647 nM | > 5000 nM | 233 nM | > 5000 nM | > 5000 nM | > 5000 nM | 584 nM | 298 nM | – | Cc1cc2cc(n1)-c1cnn(C)c1OCCN1CC3CCC(C3)(C1)n1c(nc3ccc(N4CCC5(CC4)CCN5C)cc31)NC2=O (single isomer, unassigned) [Example B54A]

From patent US20260365670A1, “EGFR INHIBITORS AND USES THEREOF” (DIZAL (JIANGSU) PHARMACEUTICAL CO., LTD., priority 2022, published 2026)
